Experiments:
[1] = Solubility in DMSO (NMR observation); assay type: physicochemical; conditions: noticed from weak NMR signals
[2] = system: Breast MCF10A normal cell line; test: Normal cell line cytotoxicity using MCF10a (MTT); assay type: cell-based, human; conditions: 48 h; for IC50: Homo sapiens, MCF-10A; for Selectivity Index: MCF10A normal versus T47D cancer cells
Description: In vitro toxicology assay kit (MTT based) stock no. TOX-1 7H258 was purchased from SIGMA (St. Louis, MO). About 3 ml of the medium with the normal cell lines in log phase were added in multiwall plate without phenol red and serum. A volume of reconstituted MTT (#M-5655) equivalent to 10% of the culture medium volume was added then incubated for 2 h. The resulted fomazan crystals were dissolved with occasional shaking by equivalent volume of MTT solubilising solution (#M-8910). The final solution absorbance was measured spectrophotometry at wavelength 570 nm. Blank experiment was performed using medium only without cells.

Row | SMILES | solubility in DMSO [1] | IC50 [2] [µM] | Selectivity Index [2]
1 | Cc1nc(Nc2cccc(Nc3nc(C)c(N=Nc4ccccc4)s3)c2)sc1N=Nc1ccccc1 [5a, N^1,N^3-bis(4-methyl-5-(phenyldiazenyl)thiazol-2-yl)benzene-1,3-diamine] | poor solubility in DMSO | – | –
2 | CC(=O)c1sc(Nc2cccc(Nc3nc(C)c(C(C)=O)s3)c2)nc1C [3b, 1,1’-(2,2’-(1,3-Phenylenebis(azanediyl))bis(4-methylthiazole-5,2-diyl))diethanone] | – | 105 | 18.25
3 | Fc1ccc(-c2cs/c(=N\c3ccccc3)n2-c2cccc(-n3c(-c4ccc(F)cc4)cs/c3=N\c3ccccc3)c2)cc1 [8b, N,N’-(3,3’-(1,3-phenylene)bis(4–(4-fluorophenyl)thiazole-3(3H)-yl-2(3H)-ylidene))dianiline] | – | 53.3 | 5.44

From paper PMC9897788, “Design, synthesis and cytotoxic evaluation of novel bis-thiazole derivatives as preferential Pim1 kinase inhibitors with in vivo and in silico study” (Journal of Enzyme Inhibition and Medicinal Chemistry, 2023)
